According to PubChem BioAssay (NCI):
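All cell lines were grown in 96-well plates and treated with compound for 48 hours. Definition used: TGI = concentration required for complete inhibition of growth.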

Columns and labels:
Assay in all cases: DTP human tumour cell line panel, 48 h
786-0 renal = test system: 786-0 renal
A549 NSCLC = test system: A549 NSCLC
ACHN renal = test system: ACHN renal
BT-549 breast = test system: BT-549 breast
CAKI-1 renal = test system: CAKI-1 renal
CCRF-CEM leukemia = test system: CCRF-CEM leukemia
COLO 205 colon = test system: COLO 205 colon
DU-145 prostate = test system: DU-145 prostate
EKVX NSCLC = test system: EKVX NSCLC
HCC-2998 colon = test system: HCC-2998 colon
HCT-116 colon = test system: HCT-116 colon
HCT-15 colon = test system: HCT-15 colon
HL-60(TB) leukemia = test system: HL-60(TB) leukemia
HOP-62 NSCLC = test system: HOP-62 NSCLC
HOP-92 NSCLC = test system: HOP-92 NSCLC
HS 578T breast = test system: HS 578T breast
HT29 colon = test system: HT29 colon
IGROV1 ovarian = test system: IGROV1 ovarian
K-562 leukemia = test system: K-562 leukemia
KM12 colon = test system: KM12 colon
LOX IMVI melanoma = test system: LOX IMVI melanoma
M14 melanoma = test system: M14 melanoma
MCF7 breast = test system: MCF7 breast
MDA-MB-231 breast = test system: MDA-MB-231 breast
MDA-MB-435 = test system: MDA-MB-435
MDA-N = test system: MDA-N
MOLT-4 leukemia = test system: MOLT-4 leukemia
NCI-H226 lung = test system: NCI-H226 lung
NCI-H23 lung = test system: NCI-H23 lung
NCI-H460 lung = test system: NCI-H460 lung
NCI-H522 lung = test system: NCI-H522 lung
NCI/ADR-RES ovarian = test system: NCI/ADR-RES ovarian
OVCAR-3 ovarian = test system: OVCAR-3 ovarian
OVCAR-4 ovarian = test system: OVCAR-4 ovarian
OVCAR-5 ovarian = test system: OVCAR-5 ovarian
OVCAR-8 ovarian = test system: OVCAR-8 ovarian
PC-3 prostate = test system: PC-3 prostate
RPMI-8226 leukemia = test system: RPMI-8226 leukemia
RXF 393 renal = test system: RXF 393 renal
SF-268 CNS = test system: SF-268 CNS
SF-295 CNS = test system: SF-295 CNS
SF-539 CNS = test system: SF-539 CNS
SK-MEL-2 melanoma = test system: SK-MEL-2 melanoma
SK-MEL-28 melanoma = test system: SK-MEL-28 melanoma
SK-MEL-5 melanoma = test system: SK-MEL-5 melanoma
SK-OV-3 ovarian = test system: SK-OV-3 ovarian
SN12C renal = test system: SN12C renal
SNB-19 CNS = test system: SNB-19 CNS
SNB-75 CNS = test system: SNB-75 CNS
SR leukemia = test system: SR leukemia
SW-620 colon = test system: SW-620 colon
T-47D breast = test system: T-47D breast
TK-10 renal = test system: TK-10 renal
U251 CNS = test system: U251 CNS
UACC-257 melanoma = test system: UACC-257 melanoma
UACC-62 melanoma = test system: UACC-62 melanoma
UO-31 renal = test system: UO-31 renal

With `Cc1cc(O)c(C=NC(=S)C(N)=S)c(=O)o1` as the compound, how does the TGI (786-0 renal) read?
Its TGI is greater than 100 µM.

What about the TGI (A549 NSCLC) of the same compound?
The TGI was greater than 100 µM.

And the TGI (ACHN renal)?
Its TGI is greater than 100 µM.

What about the TGI (BT-549 breast) of the same compound?
The TGI was greater than 100 µM.

What about the TGI (CAKI-1 renal) of the same compound?
Its TGI is greater than 100 µM.

What about the TGI (CCRF-CEM leukemia) of the same compound?
The TGI was greater than 100 µM.

What about the TGI (COLO 205 colon) of the same compound?
Its TGI is greater than 100 µM.

What about the TGI (DU-145 prostate) of the same compound?
Its TGI is greater than 100 µM.

And the TGI (EKVX NSCLC)?
The TGI was greater than 100 µM.

And the TGI (HCC-2998 colon)?
Its TGI is greater than 100 µM.

What about the TGI (HCT-116 colon) of the same compound?
Its TGI is greater than 100 µM.

What about the TGI (HCT-15 colon) of the same compound?
Its TGI is greater than 100 µM.

What about the TGI (HL-60(TB) leukemia) of the same compound?
Its TGI is greater than 100 µM.

What about the TGI (HOP-62 NSCLC) of the same compound?
The TGI was greater than 100 µM.

And the TGI (HOP-92 NSCLC)?
Its TGI is greater than 100 µM.

And the TGI (HS 578T breast)?
The TGI was greater than 100 µM.

And the TGI (HT29 colon)?
Its TGI is greater than 100 µM.

What about the TGI (IGROV1 ovarian) of the same compound?
Its TGI is greater than 100 µM.

And the TGI (K-562 leukemia)?
The TGI was greater than 100 µM.

What about the TGI (KM12 colon) of the same compound?
Its TGI is greater than 100 µM.

And the TGI (LOX IMVI melanoma)?
The TGI was greater than 100 µM.

And the TGI (M14 melanoma)?
The TGI was greater than 100 µM.

And the TGI (MCF7 breast)?
The TGI was greater than 100 µM.

What about the TGI (MDA-MB-231 breast) of the same compound?
The TGI was greater than 100 µM.

What about the TGI (MDA-MB-435) of the same compound?
Its TGI is greater than 100 µM.

And the TGI (MDA-N)?
Its TGI is greater than 100 µM.

And the TGI (MOLT-4 leukemia)?
Its TGI is greater than 30.1 µM.

What about the TGI (NCI-H226 lung) of the same compound?
Its TGI is greater than 100 µM.

And the TGI (NCI-H23 lung)?
The TGI was greater than 100 µM.

What about the TGI (NCI-H460 lung) of the same compound?
Its TGI is greater than 100 µM.

What about the TGI (NCI-H522 lung) of the same compound?
Its TGI is greater than 100 µM.

And the TGI (NCI/ADR-RES ovarian)?
The TGI was greater than 100 µM.

What about the TGI (OVCAR-3 ovarian) of the same compound?
Its TGI is greater than 100 µM.

What about the TGI (OVCAR-4 ovarian) of the same compound?
The TGI was greater than 100 µM.

What about the TGI (OVCAR-5 ovarian) of the same compound?
Its TGI is greater than 100 µM.

And the TGI (OVCAR-8 ovarian)?
Its TGI is greater than 100 µM.

What about the TGI (PC-3 prostate) of the same compound?
Its TGI is greater than 100 µM.

What about the TGI (RPMI-8226 leukemia) of the same compound?
Its TGI is greater than 100 µM.

And the TGI (RXF 393 renal)?
Its TGI is greater than 100 µM.

What about the TGI (SF-268 CNS) of the same compound?
The TGI was greater than 100 µM.

And the TGI (SF-295 CNS)?
Its TGI is greater than 100 µM.

And the TGI (SF-539 CNS)?
The TGI was greater than 100 µM.

What about the TGI (SK-MEL-2 melanoma) of the same compound?
Its TGI is greater than 100 µM.

What about the TGI (SK-MEL-28 melanoma) of the same compound?
The TGI was greater than 100 µM.

And the TGI (SK-MEL-5 melanoma)?
Its TGI is greater than 100 µM.

And the TGI (SK-OV-3 ovarian)?
The TGI was greater than 100 µM.

What about the TGI (SN12C renal) of the same compound?
The TGI was greater than 100 µM.

And the TGI (SNB-19 CNS)?
Its TGI is greater than 100 µM.

What about the TGI (SNB-75 CNS) of the same compound?
Its TGI is greater than 100 µM.

And the TGI (SR leukemia)?
Its TGI is greater than 100 µM.

What about the TGI (SW-620 colon) of the same compound?
Its TGI is greater than 100 µM.

What about the TGI (T-47D breast) of the same compound?
Its TGI is greater than 100 µM.

What about the TGI (TK-10 renal) of the same compound?
The TGI was greater than 100 µM.

And the TGI (U251 CNS)?
Its TGI is greater than 100 µM.

And the TGI (UACC-257 melanoma)?
The TGI was greater than 100 µM.

And the TGI (UACC-62 melanoma)?
Its TGI is greater than 100 µM.

What about the TGI (UO-31 renal) of the same compound?
The TGI was greater than 100 µM.
